From US8653096B2, “Chemokine receptor antagonists and methods of use thereof” (Millennium Pharmaceuticals, Inc., priority 2001, dated 2014)
pIC50: −log10 of the molar value.

Target: T1, RANTES/MIP-1α chemokine receptor (CCR1) in THP-1 cell membranes (Homo sapiens, UniProt P32246)
T1 construct: Membranes were prepared from THP-1 cells (ATCC #TIB202); host or cells: THP-1 cells (membrane preparation)
T1 sequence (P32246 1-355): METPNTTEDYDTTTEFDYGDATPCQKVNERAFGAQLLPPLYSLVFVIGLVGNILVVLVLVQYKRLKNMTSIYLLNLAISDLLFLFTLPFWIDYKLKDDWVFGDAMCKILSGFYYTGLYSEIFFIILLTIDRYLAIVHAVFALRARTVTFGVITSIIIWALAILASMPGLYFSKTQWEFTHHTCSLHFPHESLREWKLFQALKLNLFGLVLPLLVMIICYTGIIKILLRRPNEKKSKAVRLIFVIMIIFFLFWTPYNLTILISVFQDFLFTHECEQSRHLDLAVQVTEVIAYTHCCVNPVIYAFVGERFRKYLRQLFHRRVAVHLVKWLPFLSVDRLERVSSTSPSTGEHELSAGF
Test: Receptor binding assay: 125I-RANTES or 125I-MIP-1α binding to THP-1 cell membranes
Settings: inhibitor concentration required for 50% inhibition of specific binding; 125I-RANTES or 125I-MIP-1α as ligand, THP-1 cell membranes; read-out: IC50
Method: Membranes were prepared from THP-1 cells (ATCC #TIB202). Cells were harvested by centrifugation, washed twice with PBS (phosphate-buffered saline), and the cell pellets were frozen at −70 to −85° C. The frozen pellet was thawed in ice-cold lysis buffer consisting of 5 mM HEPES (N-2-hydroxyethylpiperazine-N′-2-ethane-sulfonic acid) pH 7.5, 2 mM EDTA (ethylenediaminetetraacetic acid), 5 μg/ml each aprotinin, leupeptin, and chymostatin (protease inhibitors), and 100 μg/ml PMSF (phenyl methane sulfonyl fluoride—also a protease inhibitor), at a concentration of 1 to 5×10^7 cells/ml. This procedure results in cell lysis. The suspension was mixed well to resuspend all of the frozen cell pellet. Nuclei and cell debris were removed by centrifugation of 400×g for 10 minutes at 4° C. The supernatant was transferred to a fresh tube and the membrane fragments were collected by centrifugation at 25,000×g for 30 minutes at 4° C. The supernatant was aspirated and the pellet was resuspended in freezing buffer consisting of 10 mM HEPES pH 7.5, 300 mM sucrose, 1 μg/ml each aprotinin, leupeptin, and chymostatin, and 10 μg/ml PMSF (approximately 0.1 ml per each 10^8 cells). All clumps were resolved using a minihomogenizer, and the total protein concentration was determined using a protein assay kit (Bio-Rad, Hercules, Calif., cat #500-0002). The membrane solution was then aliquoted and frozen at −70 to −85° C. until needed.
Binding Assays utilized the membranes described above. […] The binding reactions were performed in 60 to 100 μl of a binding buffer consisting of 10 mM HEPES pH 7.2, 1 mM CaCl2, 5 mM MgCl2, and 0.5% BSA (bovine serum albumin), for 60 min at room temperature. The binding reactions were terminated by harvesting the membranes by rapid filtration through glass fiber filters (GF/B or GF/C, Packard) which were presoaked in 0.3% polyethyleneimine. The filters were rinsed with approximately 600 μl of binding buffer containing 0.5 M NaCl, dried, and the amount of bound radioactivity was determined by scintillation counting in a Topcount beta-plate counter.
Specific binding is defined as the total binding minus the non-specific binding; non-specific binding is the amount of cpm still detected in the presence of excess unlabeled Rantes or MIP-1α.

Row | Substance | pIC50
1 | 4-(2-Chlorophenyl)-1-[3-(5,11-dihydro-7-methoxy[1]benzoxepino[2,3-b]pyridin-5-ylidene)propyl]piperidin-4-ol [Example 76] | > 5.00
2 | 4-(3,4-Dichlorophenyl)-1-[3-(5,11-dihydro-7-methoxy[1]benzoxepino[2,3-b]pyridin-5-ylidene)propyl]piperidin-4-ol [Example 79] | > 6.00
3 | 4-(3,4-difluorophenyl)-1-[3-(5,11-dihydro-7-methoxy[1]benzoxepino[2,3-b]pyridin-5-ylidene)propyl]piperidin-4-ol [Example 144] | > 6.00
4 | 4-(3,5-dichlorophenyl)-1-[3-(5,11-dihydro-7-methoxy[1]benzoxepino[2,3-b]pyridin-5-ylidene)propyl]piperidin-4-ol [Example 146] | < 5.00
5 | 4-(3-Chlorophenyl)-1-[3-(5,11-dihydro-7-methoxy[1]benzoxepino[2,3-b]pyridin-5-ylidene)propyl]piperidin-4-ol [Example 75] | > 5.00
6 | 4-(4-Bromophenyl)-1-[3-(5,11-dihydro-7-methoxy[1]benzoxepino[2,3-b]pyridin-5-ylidene)propyl]piperidin-4-ol [Example 60] | > 6.00
7 | 4-(4-Chlorophenyl)-1-[3-(5,11-dihydro [1]benzoxepino[2,3-b]pyridin-5-ylidene)propyl]piperidin-4-ol [Example 53] | > 6.00
8 | 4-(4-Chlorophenyl)-1-[3-(5,11-dihydro-7-(1-butoxy)carbonyl-[1]benzoxepino[2,3-b]pyridin-5-ylidene) propyl]piperidine-4-ol [Example 427] | > 6.00
9 | 4-(4-Chlorophenyl)-1-[3-(5,11-dihydro-7-(1-cyclohexyloxycarbonyloxy)ethyloxycarbonyl[1]benzoxepino[2,3-b]pyridin-5-ylidene)propyl]piperidin-4-ol dihydrochloride [Example 306] | > 6.00
10 | 4-(4-Chlorophenyl)-1-[3-(5,11-dihydro-7-(1-ethoxycarbonyl-1-methylethyl)oxy[1]benzoxepino[2,3-b]pyridin-5-ylidene)propyl]piperidin-4-ol [Example 138] | > 6.00
11 | 4-(4-Chlorophenyl)-1-[3-(5,11-dihydro-7-(1-ethoxycarbonyl-1-methylethyl)oxy[1]benzoxepino[2,3-b]pyridin-5-ylidene)propyl]piperidine [Example 158] | > 6.00
12 | 4-(4-Chlorophenyl)-1-[3-(5,11-dihydro-7-(1-piperidino)methyl[1]benzoxepino[2,3-b]pyridin-5-ylidene)propyl]piperidin-4-ol [Example 277] | > 6.00
13 | 4-(4-Chlorophenyl)-1-[3-(5,11-dihydro-7-(1-propoxy)carbonyl-[1]benzoxepino[2,3-b]pyridin-5-ylidene) propyl]piperidine-4-ol [Example 426] | > 6.00
14 | 4-(4-Chlorophenyl)-1-[3-(5,11-dihydro-7-(1-pyrrolidino)methyl [1]benzoxepino[2,3-b]pyridin-5-ylidene)propyl]piperidin-4-ol [Example 279] | > 6.00
15 | 4-(4-Chlorophenyl)-1-[3-(5,11-dihydro-7-(2,3-dihydroxy)propyl[1]benzoxepino[2,3-b]pyridin-5-ylidene)propyl]piperidin-4-ol [Example 290] | > 6.00
16 | 4-(4-Chlorophenyl)-1-[3-(5,11-dihydro-7-(2-hydroxy)ethyl[1]benzoxepino[2,3-b]pyridin-5-ylidene)propyl]piperidin-4-ol [Example 280] | > 6.00
17 | 4-(4-Chlorophenyl)-1-[3-(5,11-dihydro-7-(2-hydroxyethyl)oxy[1]benzoxepino[2,3-b]pyridin-5-ylidene)propyl]piperidin-4-ol [Example 51] | > 6.00

Row | Substance | pIC50
18 | 4-(4-Chlorophenyl)-1-[3-(5,11-dihydro-7-(2-morpholinoethyl)oxy[1]benzoxepino[2,3-b]pyridin-5-ylidene)propyl]piperidin-4-ol [Example 52] | > 6.00
19 | 4-(4-Chlorophenyl)-1-[3-(5,11-dihydro-7-(2-propoxy)carbonyl-[1]benzoxepino[2,3-b]pyridin-5-ylidene) propyl]piperidine-4-ol [Example 428] | > 6.00
20 | 4-(4-Chlorophenyl)-1-[3-(5,11-dihydro-7-(ethoxycarbonylmethyl)-oxycarbonyl-[1]benzoxepino[2,3-b]pyridin-5-ylidene) propyl]piperidine-4-ol [Example 424] | > 6.00
21 | 4-(4-Chlorophenyl)-1-[3-(5,11-dihydro-7-cyclohexyloxycarbonyl-[1]benzoxepino[2,3-b]pyridin-5-ylidene)propyl]piperidine-4-ol [Example 425] | > 6.00
22 | 4-(4-Chlorophenyl)-1-[3-(5,11-dihydro-7-cyclopentyl-oxycarbonyl-[1]benzoxepino[2,3-b]pyridin-5-ylidene) propyl]piperidine-4-ol [Example 429] | > 6.00
23 | 4-(4-Chlorophenyl)-1-[3-(5,11-dihydro-7-dimethylaminocarbonylmethyloxy[1]benzoxepino[2,3-b]pyridin-5-ylidene)propyl]piperidin-4-ol [Example 134] | > 6.00
24 | 4-(4-Chlorophenyl)-1-[3-(5,11-dihydro-7-dimethylaminocarbonylmethyloxy[1]benzoxepino[2,3-b]pyridin-5-ylidene)propyl]piperidine [Example 155] | > 6.00
25 | 4-(4-Chlorophenyl)-1-[3-(5,11-dihydro-7-ethoxy [1]benzoxepino[2,3-b]pyridin-5-ylidene)propyl]piperidin-4-ol [Example 46] | > 6.00
26 | 4-(4-Chlorophenyl)-1-[3-(5,11-dihydro-7-ethoxy[1]benzoxepino[2,3-b]pyridin-5-ylidene)propyl]piperidine [Example 152] | > 6.00
27 | 4-(4-Chlorophenyl)-1-[3-(5,11-dihydro-7-ethoxycarbonyl-[1]benzoxepino[2,3-b]pyridin-5-ylidene) propyl]piperidine-4-ol [Example 423] | > 6.00
28 | 4-(4-Chlorophenyl)-1-[3-(5,11-dihydro-7-ethoxycarbonylmethyloxy[1]benzoxepino[2,3-b]pyridin-5-ylidene)propyl]piperidin-4-ol [Example 48] | > 6.00
29 | 4-(4-Chlorophenyl)-1-[3-(5,11-dihydro-7-ethyl[1]benzoxepino[2,3-b]pyridin-5-ylidene)propyl]piperidin-4-ol [Example 163] | > 6.00
30 | 4-(4-Chlorophenyl)-1-[3-(5,11-dihydro-7-hydroxy [1]benzoxepino[2,3-b]pyridin-5-ylidene)propyl]piperidin-4-ol [Example 44] | > 6.00
31 | 4-(4-Chlorophenyl)-1-[3-(5,11-dihydro-7-hydroxy[1]benzoxepino[2,3-b]pyridin-5-ylidene)propyl]piperidine [Example 151] | > 6.00
32 | 4-(4-Chlorophenyl)-1-[3-(5,11-dihydro-7-isopropoxy[1]benzoxepino[2,3-b]pyridin-5-ylidene)propyl]piperidin-4-ol [Example 47] | > 6.00
33 | 4-(4-Chlorophenyl)-1-[3-(5,11-dihydro-7-methoxy[1]benzoxepino[2,3-b]pyridin-5-ylidene)propyl]-1,2,3,6-tetrahydropyridine [Example 194] | > 6.00
